Counter-ions that a name gives are not always drawn. Like-named read-outs stand apart in the source and are kept apart here. Bounds are passed on as bounds.

Series [1] in a line: Ulcerogenic activity / gastric tolerability, UD50 in fasted rats. The series is classed as in vivo, rat. Conditions: rat, in vivo, po. The text has this: (§1) The UD50 has been also calculated according to the aforesaid method of Litchfield and Wilcoxon.
Series [2] in a line: Analgesic activity (method of Randall and Selitto). The series is classed as in vivo. Conditions: for selectivity ratio: in vivo, Randall-Selitto 3 h, read-out: Therapeutical index LD50/ED50 (Randall-Selitto 3h); for ED50: po, read-out: Randall-Selitto (3 h) ED50. An excerpt:
As regards the analgesic activity, the evaluation has been carried out according to the method of Randall and Selitto (Arch. Ing. Pharmacodyn., 111, 409, […]).

The subject of series [3] is rat. Kind of series: Anti-inflammatory activity, carrageenin induced oedema (Winter et al.). The series is classed as in vivo. Conditions: 3 h; for ED50: Rattus norvegicus, po, read-out: Carrageenin induced oedema (3 h) ED50; for Carrageenin induced oedema (3 h) ED50: 180 min. An excerpt:
(§2) As regards the anti-inflammatory activity, the ED50 in the normal rat has been evaluated according to Winter et al. (Proc. Soc. Exp. Biol. Med., 111, 544, 1962).

Experiment in series [4]: as above
In kind it is in vivo, rat. Conditions: rat, in vivo; carrageenin 3 h; read-out: Therapeutical index LD50/ED50 (carrageenin 3h).
From the text: as §2

Series [5] is described as follows: Acute toxicity in the rat (method of Litchfield and Wilcoxon). The note with it: in vivo, po. An excerpt: (§3) In the following resuming table the results obtained for the esters of the Indomethacin are reported. In the determination of the acute toxicity, carried out in the rat, the method of Litchfield and Wilcoxon (J. Pharmacol. Exp. Therm., 96, 99, 1949) has been adopted.

Series [6] can be described thus: Solubility of the product. The series is classed as physicochemical.
Series [7] has as its system rat. Kind of series: Ulcerogenic activity / gastric tolerability, UD50 in fasted rats. In kind it is in vivo. The note with it: for Gastric tolerability UD50 fasted 18 h / Gastric tolerability UD50 fasted 48 h: rat, in vivo, po.
From the text: as §1

Series [8] has as its system rat. Kind of series: Acute toxicity in the rat (method of Litchfield and Wilcoxon). The note with it: in vivo, po.
From the text: as §3

[9] abbreviates: UD50 18 h, Randall-Selitto 3 h, read-out: Tolerability index UD50 (18h)/ED50 (Randall-Selitto 3 H).
[10] abbreviates: UD50 18 h, carrageenin 3 h, read-out: Tolerability index UD50 (18 h)/ED50 (carrageenin 3 h).
Where [11] appears, read: UD50 48 h, Randall-Selitto 3 h, read-out: Tolerability index UD50 (48 h)/ED50 (Randall-Selitto 3 h).
Where [12] appears, read: UD50 48 h, carrageenin 3 h, read-out: Tolerability index UD50 (48 h)/ED50 (carrageenin 3 h).

As a reminder, the ED50 is the dose at which the effect has come halfway, by size or by number of responders. In general, LD50 refers to the dose at which mortality reaches 50%. Read a high LD50 as lower toxicity. As to `COc1ccc2c(c1)c(CC(=O)O)c(C)n2C(=O)c1ccc(Cl)cc1` [Indomethacin, 1-(p-chlorobenzoyl)-2-methyl-5-methoxy-indol-3-acetic acid, reference compound], the selectivity ratio amounted to 5.18 in series [1] (setting [9]); 1.57 in series [1] (setting [10]); 2.59 in series [1] (setting [11]); 0.78 in series [1] (setting [12]); 15.8 in series [2]; 4.77 in series [4]. The TD50 at 18 h in series [1] (fasted rats, per os, 18 h, read-out: Gastric tolerability UD50 fasted 18 h) is 6.9 mg/kg. Moreover, the TD50 at 48 h in series [1] (fasted rats, per os, 48 h, read-out: Gastric tolerability UD50 fasted 48 h) was 3.45 mg/kg. Also, the ED50 is 1.33 mg/kg in series [2] (3 h) and 4.4 mg/kg in series [3]. For the same compound, the 50% lethal dose (LD50) in series [5] (per os (head: mg/kg/os), * = insufficient sample) is 21 mg/kg.
For the compound `COc1ccc2c(c1)c(CC(=O)OCc1cnc(C)c3c1COC(C)(C)O3)c(C)n2C(=O)c1ccc(Cl)cc1` [compound ex. 1(b), Hydrochloride of the (3,4-isopropylidene)-pyridoxine ester of 1-(p-chlorobenzoyl)-2-methyl-5-methoxy-indol-3-acetic acid], in series [6] (cold chloroform), the “solubility in cold chloroform” value is listed as “soluble”. Further, in series [6] (hot N,N'-dimethylformamide), the “solubility in hot N,N'-dimethylformamide” value is “poorly soluble”. The “solubility in hot ethanol” value in series [6] (hot ethanol) is “soluble”. Also, in series [6] (water), the solubility in water result is “insoluble”. Also, the “Tolerability index UD50 (18h)/ED50 (Randall-Selitto 3 H)” value in series [7] (UD50 18 h) is recorded as 12.59. Besides, the “Tolerability index UD50 (18 h)/ED50 (carrageenin 3 h)” value in series [7] (UD50 18 h, carrageenin 3 h) is 3.30. For the same compound, the “Tolerability index UD50 (48 h)/ED50 (Randall-Selitto 3 h)” value in series [7] (UD50 48 h) is 8.45. Also, the “Tolerability index UD50 (48 h)/ED50 (carrageenin 3 h)” value in series [7] (UD50 48 h, carrageenin 3 h) is reported as 2.22. Moreover, in series [7], the “Gastric tolerability UD50 fasted 18 h” value is recorded as 33.50. In series [7], the “Gastric tolerability UD50 fasted 48 h” value is 22.50. Further, the “Randall-Selitto (3 h) ED50” value in series [2] (3 h, per os, 180 min) was 2.66 mg/kg/os. The selectivity ratio amounted to 31.9 in series [2] and 8.39 in series [4]. Also, the “Carrageenin induced oedema (3 h) ED50” value in series [3] (normal rat, per os) was determined as 10.13 mg/kg/os. Besides, the “LD50, rat” value in series [8] came out at 85 mg/kg.
`COc1ccc2c(c1)c(CC(=O)OCc1cnc(C)c3c1COC(C)(C)O3)c(C)n2C(=O)c1ccc(Cl)cc1` [compound ex. 1(c), (3,4-isopropylidene)-pyridoxine ester of 1-(p-chlorobenzoyl)-2-methyl-5-methoxy-indol-3-acetic acid]: the “Tolerability index UD50 (18h)/ED50 (Randall-Selitto 3 H)” value in series [7] (UD50 18 h) amounted to 78.51. For the same compound, the “Tolerability index UD50 (48 h)/ED50 (Randall-Selitto 3 h)” value in series [7] (UD50 48 h) is 51.85. In series [7], the “Gastric tolerability UD50 fasted 18 h” value amounted to 212.00 and the “Gastric tolerability UD50 fasted 48 h” value is recorded as 140.00. Besides, in series [1] (setting [10]), the selectivity ratio worked out at 5.75. In addition, the selectivity ratio in series [1] (setting [12]) was determined as 3.8. Also, the 50% effective dose (ED50) in series [2] (3 h, per os) was found to be 2.7 mg/kg. For the same compound, in series [3] (normal rat, per os), the “Carrageenin induced oedema (3 h) ED50” value was 36.83 mg/kg/os. Moreover, the “LD50, rat” value in series [8] is recorded as greater than 200 mg/kg.
The compound `COc1ccc2c(c1)c(CC(=O)OCc1cnc(C)c(O)c1CO)c(C)n2C(=O)c1ccc(Cl)cc1` [compound ex. 2, Pyridoxine ester of 1-(p-chlorobenzoyl)-2-methyl-5-methoxy-indol-3-acetic acid] registered a TD50 at 18 h in series [1] (Gastric tolerability UD50 fasted 18 h) of 530 mg/kg. For the same compound, in series [1] (Gastric tolerability UD50 fasted 48 h), the TD50 at 48 h amounted to 285 mg/kg. The selectivity ratio stood at 157 in series [1] (setting [9]), 6.97 in series [1] (setting [10]), 84.6 in series [1] (setting [11]) and 3.75 in series [1] (setting [12]). Also, the ED50 in series [2] (3 h, per os) turned out to be 3.37 mg/kg; in series [3] (normal rat, per os) it was 76 mg/kg. Moreover, the mortality in series [5] (819 mg/kg, read-out: LD50, rat line: percent at 819 mg/kg) is 62.5%.

The values above are taken from US4412996A, “Pyridoxine derivatives and related pharmaceutical compositions” (Crinos Farmacologica Spa, priority 1980, dated 1983).
